ChEMBL document CHEMBL3580654, “Tetranorsesquiterpenoids and Santalane-Type Sesquiterpenoids from Illicium lanceolatum and Their Antimicrobial Activity against the Oral Pathogen Porphyromonas gingivalis” (J Nat Prod, 2015)
Activity calls are given as the source filed them. No cut-off for these calls is given here.

Assays:
[1] = system: Streptococcus sobrinus; experiment: Antibacterial activity against Streptococcus sobrinus MT10186 assessed as effect on growth at 5 to 20 ug/ml after 24 hrs by microplate reader analysis; assay type: functional, organism-based
[2] = system: Streptococcus oralis; experiment: Antibacterial activity against Streptococcus oralis SK23 assessed as effect on growth at 5 to 20 ug/ml after 24 hrs by microplate reader analysis; assay type: functional; details: ATCC 35037
[3] = system: Streptococcus parasanguinis; experiment: Antibacterial activity against […] ATCC 903 assessed as effect on growth at 5 to 20 ug/ml after 24 hrs by microplate reader analysis; assay type: functional
[4] = system: Porphyromonas gingivalis; experiment: Antibacterial activity against Porphyromonas gingivalis ATCC 33277 assessed as growth inhibition at 5 to 20 ug/ml after 100 hrs by microplate reader analysis; assay type: functional, organism-based
[5] = system: Streptococcus mutans; experiment: Antibacterial activity against Streptococcus mutans MT8148 assessed as growth inhibition at 5 to 20 ug/ml after 24 hrs by microplate reader analysis; assay type: functional, organism-based
[6] = system: Streptococcus mutans; experiment: Antibacterial activity against Streptococcus mutans MT8148 assessed as growth inhibition at 20 ug/ml after 24 hrs by microplate reader analysis; assay type: functional, organism-based
[7] = system: Porphyromonas gingivalis; experiment: Antibacterial activity against Porphyromonas gingivalis ATCC 33277 assessed as growth inhibition at 10 to 20 ug/ml after 100 hrs by microplate reader analysis; assay type: functional, organism-based

Compound	Activity [1]	Activity [2]	Activity [3]	growth inhibition (GI) [4]	growth inhibition (GI) [5]	growth inhibition (GI) [6]	growth inhibition (GI) [7]
CC12CC(=O)O[C@H]3CC1CC[C@]32C	inactive	inactive	inactive	–	–	–	–
CC(C)(O)/C=C/CC1(C)C2CC3C(C2)C31C (stereo unspecified)	inactive	inactive	inactive	inactive	inactive	–	–
C=C(C)C(=O)CCC1(C)C2CC3C(C2)C31C (stereo unspecified)	inactive	inactive	inactive	–	–	Active	Active
C=C[C@@]1(C)CC[C@]2(OC(=O)C=C2C)O1	inactive	inactive	inactive	–	–	–	–
